Measurements reported in patent US4175081A, “5-Substituted thiadiazole ureas” (priority 1977, dated 1979).

Legend:
[1] = test system: Crabgrass (CG); assay: Pre-emergence herbicide test; type: in vivo, Digitaria sanquinalis; details: Digitaria sanguinalis, pre-emergence, 336 h, two weeks after treatment; for pest or weed control: 2 lb/acre; for pest or weed control at 4483.4 g/ha: 4 lb/acre
Procedure: (§1) Crabgrass (CG)--Digitaria sanquinalis
(§2) All crop and weed species were planted individually in 3' plastic pots containing potting soil. Four seeds each of corn, cotton, and snapbeans were seeded to a depth equal to the diameter of the seed. All other species were surface seeded and sprinkled with screened soil in an amount sufficient to cover the seed. Immediately after planting, all pots were watered by sub-irrigation in greenhouse trays. Pots for the pre-emergence phase were seeded one day before treatment.
(§3) Spray hood constants required to deliver the above volume are as follows:
(§4) Formulations for spray applications were prepared in 50 ml volumes with the following three components: […]
(§5) Spray applications were made in a hood containing a removable belt and fixed spray nozzle. For passage through the spray hood, one pot of each specie (pre-emergence phase) was placed on the rear half of the flat. Treatments were removed to the greenhouse after spraying. Watering during the observation period was done only by sub-irrigation.
(§6) Two weeks after treatment, pre- and post-emergence injury or control was visually rated, and the results were as shown in the following tables. Pre-emergence data are provided in TABLE III and post-emergence data are provided in TABLE IV, for compounds having the formula illustrated in TABLE I. Correspondingly, pre-emergence and post-emergence data, respectively, are set forth in TABLES V AND VI, for compounds having the formula illustrated in TABLE II.

[2] = test system: Johnson grass (JG); assay: Pre-emergence herbicide test; type: in vivo, Sorgum helepense; details: Sorghum halepense, 336 h, two weeks after treatment; for pest or weed control at 2241.7 g/ha: 2 lb/acre; for pest or weed control at 4483.4 g/ha: 4 lb/acre
Procedure: (§7) Johnson grass (JG)--Sorgum helepense
as §2
(§8) Compounds were tested at rates of application equivalent to 8 lbs. of actual compound per acre in a spray volume of 38 gallons per acre. Spray hood constants required to deliver the above volume are as follows:
(§9) Formulations for spray applications were prepared in 50 ml volumes with the following three components:
(§10) Formulations for the 4 lbs/acre rate were prepared by adjusting the amount of active ingredient accordingly.
as §5, §6

[3] = test system: Barnyard grass (BG); assay: Pre-emergence herbicide test; type: in vivo; details: Echinochloa crus-galli, 336 h, two weeks after treatment; for pest or weed control at 2241.7 g/ha: 2 lb/acre; for pest or weed control at 4483.4 g/ha: 4 lb/acre
Procedure: (§11) Barnyard grass (BG)--Echinochloa crus-galli
as §2, §8, §9, §10, §5, §6

[4] = test system: Turnip (TP); assay: Pre-emergence herbicide test; type: in vivo, Brassica sp.; details: Brassica rapa, pre-emergence, 336 h, two weeks after treatment; for pest or weed control at 2241.7 g/ha: 2 lb/acre; for pest or weed control at 4483.4 g/ha: 4 lb/acre
Procedure: (§12) Turnip (TP)--Brassica sp.
as §2, §3, §4, §5, §6

[5] = test system: Cotton (CT); assay: Pre-emergence herbicide test; type: in vivo, Gossypium hirsutum var. DPL smooth leaf; details: Gossypium hirsutum, 336 h, two weeks after treatment; for pest or weed control at 2241.7 g/ha: 2 lb/acre; for pest or weed control at 4483.4 g/ha: 4 lb/acre
Procedure: (§13) Cotton (CT)--Gossypium hirsutum var. DPL smooth leaf
as §2, §8, §9, §10, §5, §6

[6] = test system: Corn (CN); assay: Pre-emergence herbicide test; type: in vivo; details: Zea mays, 336 h, two weeks after treatment; for pest or weed control at 2241.7 g/ha: 2 lb/acre; for pest or weed control at 4483.4 g/ha: 4 lb/acre
Procedure: as §2, §8, §9, §10, §5, §6

[7] = test system: Bean (BN); assay: Pre-emergence herbicide test; type: in vivo, Phaseolus vulgaris var. Black Valentine; details: Phaseolus vulgaris, 336 h, two weeks after treatment; for pest or weed control at 2241.7 g/ha: 2 lb/acre; for pest or weed control at 4483.4 g/ha: 4 lb/acre
Procedure: (§14) Bean (BN)--Phaseolus vulgaris var. Black Valentine
as §2, §8, §9, §10, §5, §6

[8] = test system: Crabgrass (CG); assay: Post-emergence herbicide test; type: in vivo, Digitaria sanquinalis; details: Digitaria sanguinalis, post-emergence, 336 h, two weeks after treatment; for pest or weed control: 2 lb/acre; for pest or weed control at 4483.4 g/ha: 4 lb/acre
Procedure: as §1, §2
(§15) Planting dates for the post-emergence phase were varied so that all seedlings would reach the desired stage of development simultaneously. The proper stage of seedling development for treatment in the post-emergence phase is as follows:
as §3, §4, §5, §6

[9] = test system: Johnson grass (JG); assay: Post-emergence herbicide test; type: in vivo, Sorgum helepense; details: Sorghum halepense, 336 h, two weeks after treatment; for pest or weed control at 4483.4 g/ha: 4 lb/acre
Procedure: as §7, §2, §15, §8, §9, §10, §5, §6

[10] = test system: Barnyard grass (BG); assay: Post-emergence herbicide test; type: in vivo; details: Echinochloa crus-galli, 336 h, two weeks after treatment; for pest or weed control at 4483.4 g/ha: 4 lb/acre
Procedure: as §11, §2, §15, §8, §9, §10, §5, §6

[11] = test system: Turnip (TP); assay: Post-emergence herbicide test; type: in vivo, Brassica sp.; details: Brassica rapa, post-emergence, 336 h, two weeks after treatment; for pest or weed control at 2241.7 g/ha: 2 lb/acre; for pest or weed control at 4483.4 g/ha: 4 lb/acre
Procedure: as §12, §2, §15
Pigweed and turnips: 1 or 2 true leaves above visible cotyledons.
as §3, §4, §5, §6

[12] = test system: Cotton (CT); assay: Post-emergence herbicide test; type: in vivo, Gossypium hirsutum var. DPL smooth leaf; details: Gossypium hirsutum, post-emergence, 336 h, two weeks after treatment; for pest or weed control at 2241.7 g/ha: 2 lb/acre; for pest or weed control at 4483.4 g/ha: 4 lb/acre
Procedure: as §13, §2, §15
Cotton: first true leaf 1' in length; expanded cotyledons.
as §3, §9, §10, §5, §6

[13] = test system: Corn (CN); assay: Post-emergence herbicide test; type: in vivo; details: Zea mays, 336 h, two weeks after treatment; for pest or weed control: 2 lb/acre; for pest or weed control at 4483.4 g/ha: 4 lb/acre
Procedure: as §2, §15, §8, §9, §10, §5, §6

[14] = test system: Bean (BN); assay: Post-emergence herbicide test; type: in vivo, Phaseolus vulgaris var. Black Valentine; details: Phaseolus vulgaris, post-emergence, 336 h, two weeks after treatment; for pest or weed control at 2241.7 g/ha: 2 lb/acre; for pest or weed control at 4483.4 g/ha: 4 lb/acre
Procedure: as §14, §2, §15
Beans: primary leaves expanded, growing point at primary leaf nodes.
as §3, §9, §10, §5, §6

Compound	pest or weed control [1] [%]	pest or weed control at 2241.7 g/ha [2] [%]	pest or weed control at 2241.7 g/ha [3] [%]	pest or weed control at 2241.7 g/ha [4] [%]	pest or weed control at 2241.7 g/ha [5] [%]	pest or weed control at 2241.7 g/ha [6] [%]	pest or weed control at 2241.7 g/ha [7] [%]	pest or weed control [8] [%]	pest or weed control at 2241.7 g/ha [11] [%]	pest or weed control at 2241.7 g/ha [12] [%]	pest or weed control [13] [%]	pest or weed control at 2241.7 g/ha [14] [%]	pest or weed control at 4483.4 g/ha [1] [%]	pest or weed control at 4483.4 g/ha [2] [%]	pest or weed control at 4483.4 g/ha [3] [%]	pest or weed control at 4483.4 g/ha [4] [%]	pest or weed control at 4483.4 g/ha [5] [%]	pest or weed control at 4483.4 g/ha [6] [%]	pest or weed control at 4483.4 g/ha [7] [%]	pest or weed control at 4483.4 g/ha [8] [%]	also measured
CCCSc1nnc(NC(=O)NC)s1 [Example 41, 1-Methyl-3-[5-n-Propylthio-2-(1,3,4-Thiadiazolyl)]Urea]	90	70	50	60	50	10	30	100	70	100	100	70	–	–	–	–	–	–	–	–	pest or weed control ([9]; 2 lb/acre): 90%; pest or weed control at 2241.7 g/ha ([10]; 2 lb/acre): 90%
CCCS(=O)(=O)c1nnc(NC(=O)NC)s1 [Example 62]	90	40	60	80	100	0	60	100	100	90	100	100	90	40	60	40	100	0	50	100	pest or weed control at 4483.4 g/ha [9]: 100%; pest or weed control at 4483.4 g/ha [10]: 80%; pest or weed control at 4483.4 g/ha [11]: 100%; pest or weed control at 4483.4 g/ha [12]: 100%; pest or weed control at 4483.4 g/ha [13]: 50%; pest or weed control at 4483.4 g/ha [14]: 100%
CNC(=O)Nc1nnc(-c2cccc(C(F)(F)F)c2)s1 [Example 73]	–	–	–	–	–	–	–	–	–	–	–	–	0	0	0	60	100	50	80	30	pest or weed control at 4483.4 g/ha [9]: 50%; pest or weed control at 4483.4 g/ha [10]: 40%; pest or weed control at 4483.4 g/ha [11]: 60%; pest or weed control at 4483.4 g/ha [12]: 50%; pest or weed control at 4483.4 g/ha [13]: 30%; pest or weed control at 4483.4 g/ha [14]: 40%
CNC(=O)Nc1nnc(-c2ccccc2Cl)s1 [Example 74]	–	–	–	–	–	–	–	–	–	–	–	–	–	–	–	–	–	–	–	–	pest or weed control at 8966.8 g/ha ([1]; 8 lb/acre): 20%; pest or weed control at 8966.8 g/ha ([2]; 8 lb/acre): 0%; pest or weed control at 8966.8 g/ha ([3]; 8 lb/acre): 30%; pest or weed control at 8966.8 g/ha ([4]; 8 lb/acre): 50%; pest or weed control at 8966.8 g/ha ([5]; 8 lb/acre): 100%; pest or weed control at 8966.8 g/ha ([6]; 8 lb/acre): 0%; pest or weed control at 8966.8 g/ha ([7]; 8 lb/acre): 100%; pest or weed control at 8966.8 g/ha ([8]; 8 lb/acre): 70%; pest or weed control at 8966.8 g/ha ([9]; 8 lb/acre): 40%; pest or weed control at 8966.8 g/ha ([10]; 8 lb/acre): 40%; pest or weed control at 8966.8 g/ha ([11]; 8 lb/acre): 80%; pest or weed control at 8966.8 g/ha ([12]; 8 lb/acre): 50%; pest or weed control at 8966.8 g/ha ([13]; 8 lb/acre): 40%; pest or weed control at 8966.8 g/ha ([14]; 8 lb/acre): 80%
